Results on four molecules are retold here after patent US12422660B2, “Microscope for imaging samples within wells of multi-well plates hold by stage and beam homogenizer for homogenizing beam” (QUIVER HOLDINGS INC., priority 2020, dated 2025).

For experiment [1], the system named is iPSC-derived excitatory cortical neurons (NGN2) with LOF mutation (knockout/KO). The experiment can be described thus: Optopatch multi-dimensional analysis of disease phenotype reversal and side effects. The following applies: for cell behavior projected onto phenotype/side effect space: KO cells, 8 concentrations from 0.28 to 600 μM, increasing concentration; for reversal of functional phenotype (WT vs KO), radar plot: KO neurons, 30 days in culture. The class given is cell-based, human. From the text:
In compound screening, multidimensional data may be reduced to a few parameters that can be used to rank and select compounds to advance. In disease modeling, for example, one uses hiPSC-derived neurons from patients and healthy controls, and screens for compounds that induce the disease cells to behave like healthy cells. The dimensionality reduction is described in FIG. 27-FIG. 29.
FIG. 27-FIG. 29 show multi-dimensional analysis with iPSC-derived excitatory cortical neurons (NGN2), 30 days in culture.
FIG. 27 is Radar plot showing a select subset of parameters normalized to values for wildtype (WT) neurons. […] The difference between WT and KO traces is the functional phenotype.
FIG. 28 is a diagram illustrating phenotype reversal and “side effects.” In the ˜300-dimensional space of recorded parameters, only two of which are shown, WT wells are clustered and KO wells are clustered. The vector between these populations represents the phenotype (red). Drug effects (blue) are deconstructed into components along (phenotype reversal) and orthogonal to (side effects) the phenotype vector. An ideal drug would undo the effects of the mutation and move the well from the KO cloud to the WT cloud.
FIG. 29 is a plot showing many wells projected onto the phenotype/side effect space. WT and KO wells are well separated along the phenotype direction. Application of the two compounds (8 concentrations from 0.28 to 600 μM) from FIG. 27 have increasing effects on KO cell behavior as the concentration increases. […] The connected drug points are in order of increasing concentration, and the two lines are experimental replicates on two consecutive weeks of experiment.

In experiment [2] the test system is E18 rat hippocampal neurons. In words: Optopatch pharmacology and high-throughput validation on 96-well Firefly. The following applies: for drug-induced change in neuronal spiking behavior: neurons cultured 14 days, vehicle normalized to 1; for firing rate: 1 μM, 96-well plate, alternating columns vs vehicle. The format is cell-based. As to the method: Concentration response curves are readily measured with the Optopatch platform (FIG. 31). All compounds show large effect sizes and good repeatability on two independent plates. Each symbol represents>100 cells in one well. All the data shown were measured in a single day.
The system is also approaching readiness for high-throughput drug screening. To test system uniformity and repeatability, ML-213 is added to alternating columns in a 96-well plate (FIG. 32-FIG. 37). The change in spike rate during the ramp is readily visible in each well and is uniform across the plate (FIG. 34-35). Using one parameter, number of spikes during the ramp, the Z′ of 0.31 indicates a failed call in 1 of 73,000 wells, sufficient for screening tens of thousands of compounds for phenotypic screens in neurons. There was a small drift in time as wells were read out serially at room temperature (FIG. 36). Recent improvements in automation control software have reduced the scan time per FOV from 30 seconds to 10 seconds, which will reduce scan time artifacts. Furthermore, the microscope will have a 5× increased imaging area, reducing the number of FOVs per well to 1 and further increasing screening speed.
FIGS. 30 & 31 show pharmacology e.g., with E18 rat hippocampal neurons cultured 14 days.
FIG. 30 is radar plots showing the drug-induced change in neuronal spiking behavior along many dimensions, tabulated at right. For each parameter, the vehicle is normalized to 1 (green); drug effects in orange.
FIG. 32-FIG. 37 show high-throughput validation for screening with E18 rat hippocampal neurons cultured for 14 days.
The blue light stimulus is shown below.

The test system of experiment [3] is hiPSC-derived motor neurons. In words: Optopatch intrinsic excitability and pharmacological response, before and after compound addition. The following applies: 1 μM, before vs after addition, blue light stimulus. The format is cell-based, human. From the text: Firefly image with overlay (colored regions) of hiPSC-derived motor neurons are identified by automated analysis.
Example voltage recordings from selected cells, and the blue stimulus used to evoke firing: steps, pulse trains, and ramps are shown. […]
FIG. 21 is a raster plot where each point is an identified action potential and each row is a neuron from a single FOV.
Analysis overview: FIGS. 19-26 show the automated analysis workflow for measurements of intrinsic excitability and pharmacological response in hiPSC-derived motor neurons. Neurons are interrogated with a stimulus protocol (blue) designed to probe a broad range of spiking behaviors. All pixels capturing fluorescence from one neuron co-vary in time following that cell's unique firing pattern (FIG. 20). The temporal covariance is used to generate a weight mask for each cell (colored regions in FIG. 19); masked pixels are averaged for each frame in the movie to calculate the voltage traces. Each FOV was recorded twice, before and after addition of potassium channel opener ML213. […] From the fluorescence-time traces, each action potential in the dataset is identified (FIG. 21), and firing rate (FIG. 22), spike shape parameters (FIG. 23) and relative timings (FIG. 24 & FIG. 25) are measured as a function of stimulus. […]

SMILES strings stand for the structures. Entries after “also recorded” stand apart in the source; their conditions may differ.

Consider `Nc1ccncc1` [4-AP], for which, in experiment [1], the “cell behavior projected onto phenotype/side effect space” value was “moves cell behavior toward and beyond WT behavior”; the “reversal of functional phenotype (WT vs KO), radar plot” value is recorded as “substantially reversed the phenotype”.
For the molecule `Nc1nnc(-c2cccc(Cl)c2Cl)c(N)n1` [lamotrigine], in experiment [1], the “cell behavior projected onto phenotype/side effect space” value is “moves behavior away from both WT and KO”; the “reversal of functional phenotype (WT vs KO), radar plot” value was “perturbed behavior but did not reverse the phenotype”.
In the case of `O=C1c2ccccc2C(Cc2ccncc2)(Cc2ccncc2)c2ccccc21` [XE-991], the “drug-induced change in neuronal spiking behavior” value in experiment [2] is given as “drive behavior in opposite directions”.
In the case of `Cc1cc(C)c(NC(=O)C2CC3CCC2C3)c(C)c1` (stereo not drawn) [ML213], the “neuronal excitability / firing” value in experiment [3] is on record as “suppresses firing; also recorded: clear reduction in neuronal excitability”. Besides, in experiment [2], the firing rate result is listed as “dramatically reduces firing rate in all wells tested” and the “drug-induced change in neuronal spiking behavior” value was “drive behavior in opposite directions”. Further, in experiment [2] (listed as ML-213), the firing rate result is recorded as “reduces firing”.
